Measured values: the supplement of paper PMC10307832

Tests used:
Assay in all cases: relative viability (nuclei count vs DMSO), 5 days (fraction); higher = more cells survive
[1] = compound: COc1cc2nccc(Oc3ccc(NC(=O)C4(C(=O)Nc5ccc(F)cc5)CC4)cc3)c2cc1OC [Cabozantinib] + CC(=O)c1c(C)c2cnc(Nc3ccc(N4CCNCC4)cn3)nc2n(C2CCCC2)c1=O [Palbociclib] (partner 0.5 µM)
Procedure, shortened: (§1)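 Medians of duplicate plates are given as relative viability. That measure is the nuclei count in treated wells divided by the count in vehicle wells. Counts were taken on 4× images of lung cancer cell lines in 1536-well plates, 5 days after pin-tool dosing the day after seeding with one drug alone or a fixed anchor-drug dose plus five library-drug doses (not always all listed) in √10 steps.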

[2] = compound: COc1cc2nccc(Oc3ccc(NC(=O)C4(C(=O)Nc5ccc(F)cc5)CC4)cc3)c2cc1OC [Cabozantinib] + C[C@]1(O)C[C@@H](c2nc(-c3ccc4ccc(-c5ccccc5)nc4c3)c3c(N)nccn32)C1 [Linsitinib] (partner 1 µM)
Procedure, shortened: as §1

[3] = compound: COc1cc2nccc(Oc3ccc(NC(=O)C4(C(=O)Nc5ccc(F)cc5)CC4)cc3)c2cc1OC [Cabozantinib] + O=C(CCCCCCC(=O)Nc1ccccc1)NO [Vorinostat] (partner 1 µM)
Procedure, shortened: as §1

Zosuquidar + Linsitinib = compound: O[C@@H](COc1cccc2ncccc12)CN1CCN([C@@H]2c3ccccc3[C@@H]3[C@H](c4ccccc42)C3(F)F)CC1 [Zosuquidar] + C[C@]1(O)C[C@@H](c2nc(-c3ccc4ccc(-c5ccccc5)nc4c3)c3c(N)nccn32)C1 [Linsitinib] (partner 1 µM)
Procedure, shortened: as §1

Cell Line | relative viability ([1]; first compound 0.02 µM) | relative viability ([1]; first compound 0.06325 µM) | relative viability ([1]; first compound 0.2 µM) | relative viability ([1]; first compound 0.6325 µM) | relative viability ([1]; first compound 2 µM) | relative viability ([2]; first compound 0.02 µM) | relative viability ([2]; first compound 0.06325 µM) | relative viability ([2]; first compound 0.2 µM) | relative viability ([2]; first compound 0.6325 µM) | relative viability ([2]; first compound 2 µM) | relative viability ([3]; first compound 0.02 µM) | relative viability ([3]; first compound 0.06325 µM) | relative viability ([3]; first compound 0.2 µM) | relative viability ([3]; first compound 0.6325 µM) | relative viability ([3]; first compound 2 µM) | relative viability (Zosuquidar + Linsitinib; first compound 0.01 µM) | relative viability (Zosuquidar + Linsitinib; first compound 0.03162 µM) | relative viability (Zosuquidar + Linsitinib; first compound 0.1 µM) | relative viability (Zosuquidar + Linsitinib; first compound 0.3162 µM) | relative viability (Zosuquidar + Linsitinib; first compound 1 µM)
NCI-H838 | 0.216 | 0.244 | 0.231 | 0.218 | 0.21 | 1.03 | 1.04 | 1.1 | 0.943 | 0.821 | 0.744 | 0.765 | 0.713 | 0.665 | 0.667 | 1.01 | 0.981 | 1.02 | 1.09 | 1.06
NCI-H1734 | 0.4 | 0.339 | 0.381 | 0.389 | 0.325 | 0.959 | 0.916 | 0.929 | 0.831 | 0.517 | 0.703 | 1.01 | 0.847 | 0.886 | 0.792 | 0.894 | 0.97 | 0.816 | 0.963 | 0.949
EKVX | 0.397 | 0.41 | 0.307 | 0.394 | 0.544 | 0.955 | 1.11 | 0.806 | 0.989 | 1.09 | 0.725 | 0.868 | – | 0.708 | 0.84 | 1.05 | 1.06 | 0.731 | 0.922 | 1.05
NCI-H647 | 0.47 | 0.456 | 0.406 | 0.335 | 0.358 | 1.28 | 1.53 | 1.33 | 1.12 | 1.11 | 0.621 | 0.734 | 0.696 | 0.43 | 0.496 | 1.16 | 1.19 | 1.3 | 1.28 | 1.24
LOU-NH91 | 0.527 | 0.518 | 0.558 | 0.549 | 0.557 | 0.928 | 1.09 | 0.537 | 0.939 | 0.95 | 0.851 | 0.973 | 0.822 | 0.853 | 0.914 | 0.937 | 0.927 | 0.736 | 1.03 | 0.913
COR-L23 | 0.299 | 0.295 | 0.29 | 0.391 | 0.297 | 1.03 | 1.27 | 0.866 | 0.954 | 0.863 | 0.367 | 0.692 | 0.431 | 0.407 | 0.417 | 0.98 | 0.959 | 0.945 | 1.03 | 0.902
NCI-H1437 | 0.312 | 0.339 | 0.296 | 0.344 | 0.302 | 1.12 | 1.26 | 1.06 | 1.13 | 0.982 | 0.931 | 0.984 | 0.925 | 0.809 | 0.715 | 1.06 | 1.01 | 0.936 | 1.08 | 1.05
EPLC-272H | 0.3 | 0.317 | 0.277 | 0.34 | 0.305 | 1.3 | 1.05 | 1.03 | 1.06 | 1.17 | 0.299 | 0.44 | 0.402 | 0.534 | 0.524 | 1.24 | 1.22 | 1.1 | 1.12 | 1.09
NCI-H1666 | 0.642 | 0.658 | 0.664 | 0.662 | 0.642 | 1.05 | 0.819 | 0.847 | 0.811 | 0.925 | 1.09 | 1.1 | 1.02 | 1.04 | 0.95 | 0.759 | 0.832 | 0.768 | 0.817 | 0.78
NCI-H441 | 0.157 | 0.286 | 0.181 | 0.23 | 0.184 | 0.53 | 0.721 | 0.686 | 0.46 | 0.418 | 0.782 | 0.922 | 0.882 | 0.794 | 0.845 | 0.505 | 0.594 | 0.498 | – | 0.478
HCC-44 | 1.04 | 1.05 | 0.998 | 0.977 | 1.03 | 0.807 | 0.795 | 0.726 | 0.64 | 0.573 | 1.1 | 1.29 | 1.08 | 1.14 | 1.08 | 0.663 | 0.684 | 0.65 | 0.669 | 0.696
NCI-H23 | – | 0.541 | 0.579 | 0.541 | 0.437 | – | 0.687 | 0.561 | 0.473 | 0.48 | – | 0.794 | 0.553 | 0.631 | 0.551 | 0.601 | 0.449 | 0.483 | 0.504 | 0.675
SW 1573 | 0.422 | 0.456 | 0.364 | 0.39 | 0.308 | 0.702 | 0.799 | 0.842 | 0.604 | 0.63 | 0.757 | 0.844 | 0.961 | 0.898 | 0.906 | 0.713 | 0.728 | 0.793 | 0.925 | 0.859
LU99A | 0.381 | 0.419 | 0.447 | 0.39 | 0.362 | 0.547 | 0.513 | 0.516 | 0.452 | 0.435 | 0.413 | 0.524 | 0.574 | 0.456 | 0.647 | 0.5 | 0.54 | 0.483 | 0.539 | 0.659
SK-LU-1 | 0.357 | 0.486 | 0.439 | 0.344 | 0.364 | – | 1.34 | 1.08 | 1.34 | 0.823 | 0.719 | 1.04 | 0.755 | 0.797 | 0.72 | 1.1 | 1.3 | 1.39 | 1.22 | 0.874
NCI-H2126 | 0.315 | 0.37 | 0.336 | 0.364 | 0.332 | 0.727 | 0.755 | 0.735 | 0.733 | 0.701 | 0.471 | 0.773 | 0.777 | 0.784 | 0.798 | 0.71 | 0.707 | 0.543 | 0.755 | 0.719
